From patent US8394787B2, “7-aza-spiro[3.5]nonane-7-carboxylate derivatives, preparation thereof and therapeutic use thereof” (Sanofi, priority 2009, dated 2013) come the findings set out here.

Each structure is given as a SMILES string. Counter-ions that a name gives are not always drawn.

Broadly, the melting point is the temperature, or range, at which the solid turns liquid.

In turn, `O=C(OCc1cscn1)N1CCC2(CC1)CC(Oc1ccc(Cl)cc1)C2` had a melting point of 86 to 88 °C.

The molecule `Cn1ncnc1COC(=O)N1CCC2(CC1)CC(Oc1ccc(Cl)cc1)C2` (as salt: HCl) returned a melting point of 163 to 165 °C.

Molecule `CNC(=O)c1cc(COC(=O)N2CCC3(CC(Oc4ccc(Cl)cc4)C3)C2)on1` (single isomer, unassigned) had a melting point of 94 to 97 °C.

For the molecule `NC(=O)c1coc(COC(=O)N2CCC3(CC(Oc4cccc(C(F)(F)F)c4)C3)C2)n1` (single isomer, unassigned) [Compound 14, 4-carbamoyl-oxazol-2-ylmethyl 2-(3-trifluoromethylphenoxy)-6-aza-spiro[3.4]octane-6-carboxylate], the melting point is 90 to 92 °C.

In turn, `NC(=O)c1cc(COC(=O)N2CCC3(CC(Oc4ccc(Cl)c(F)c4)C3)C2)on1` (single isomer, unassigned) [Compound 26, 3-carbamoyl-isoxazol-5-ylmethyl 2-(4-chloro-3-fluorophenoxy)-6-aza-spiro[3.4]octane-6-carboxylate] returned a melting point of 83 to 92 °C.

The molecule `NC(=O)c1cc(COC(=O)N2CCC3(CC(Oc4ccc(-c5ccc(F)cc5)cc4)C3)C2)on1` (single isomer, unassigned) [Compound 28, 3-carbamoyl-isoxazol-5-ylmethyl 2-(4′-fluorobiphenyl-4-yloxy)-6-aza-spiro[3.4]octane-6-carboxylate] gave a melting point of 131 to 133 °C.

As to `NC(=O)c1cc(COC(=O)N2CCC3(CC(Oc4ccc(Cl)c5ccccc45)C3)C2)on1` (single isomer, unassigned) [Compound 30, 3-carbamoyl-isoxazol-5-ylmethyl 2-(4-chloronaphthalen-1-yloxy)-6-aza-spiro[3.4]octane-6-carboxylate], the melting point was in the range of 149 to 150 °C.

Molecule `CNC(=O)c1cc(COC(=O)N2CCC3(CC(Oc4ccc(Cl)c5ccccc45)C3)C2)on1` (single isomer, unassigned) [Compound 31, 3-methylcarbamoyl-isoxazol-5-ylmethyl 2-(4-chloronaphthalen-1-yloxy)-6-aza-spiro[3.4]octane-6-carboxylate] gave a melting point of 87 to 92 °C.

As for `CNC(=O)c1cc(COC(=O)N2CCC3(CC2)CC(Oc2ccc(Cl)cc2)C3)on1` [Compound 3, 3-methylcarbamoyl-isoxazol-5-ylmethyl 2-(4-chlorophenoxy)-7-aza-spiro[3.5]nonane-7-carboxylate], the melting point was 147 to 149 °C.

Turning to `NC(=O)c1cc(COC(=O)N2CCC3(CC2)CC(Oc2ccc(Cl)cc2)C3)on1` [Compound 4, 3-carbamoyl-isoxazol-5-ylmethyl 2-(4-chlorophenoxy)-7-aza-spiro[3.5]nonane-7-carboxylate], the melting point is 70 to 72 °C.

Turning to `CCOc1ccc2ccc(OC3CC4(CCN(C(=O)OCc5cc(C(=O)NC)no5)CC4)C3)cc2c1` [Compound 8, 3-methylcarbamoyl-isoxazol-5-ylmethyl 2-(7-ethoxynaphthalen-2-yloxy)-7-aza-spiro[3.5]nonane-7-carboxylate], the melting point lay within 73 to 75 °C.

Molecule `NC(=O)c1cc(COC(=O)N2CCC3(CC2)CC(Oc2cccc(-c4ccc(F)cc4)c2)C3)on1` [Compound 12, 3-carbamoyl-isoxazol-5-ylmethyl 2-(4′-fluorobiphenyl-3-yloxy)-7-aza-spiro[3.5]nonane-7-carboxylate] showed a melting point of 74 to 76 °C.

In turn, `CCOc1ccc2ccc(OC3CC4(CCN(C(=O)OCc5cc(C(N)=O)no5)CC4)C3)cc2c1` [Compound 13, 3-carbamoyl-isoxazol-5-ylmethyl 2-(7-ethoxynaphthalen-2-yloxy)-7-aza-spiro[3.5]nonane-7-carboxylate] yielded a melting point of 114 to 116 °C.

Turning to `NC(=O)c1cc(COC(=O)N2CCC3(CC2)CC(Oc2ccc(Cl)c4ccccc24)C3)on1` [Compound 16, 3-carbamoyl-isoxazol-5-ylmethyl 2-(4-chloronaphthalen-1-yloxy)-7-aza-spiro[3.5]nonane-7-carboxylate], the melting point lay in the range of 75 to 77 °C.

On to `CNC(=O)c1cc(COC(=O)N2CCC3(CC2)CC(Oc2ccc(Cl)c4ccccc24)C3)on1` [Compound 17, 3-methylcarbamoyl-isoxazol-5-ylmethyl 2-(4-chloronaphthalen-1-yloxy)-7-aza-spiro[3.5]nonane-7-carboxylate], for which the melting point is 62 to 64 °C.

Regarding `NC(=O)c1cc(COC(=O)N2CCC3(CC2)CC(Oc2ccc(-c4ccc(F)cc4)cc2)C3)on1` [Compound 18, 3-carbamoyl-isoxazol-5-ylmethyl 2-(4′-fluorobiphenyl-4-yloxy)-7-aza-spiro[3.5]nonane-7-carboxylate], the melting point is 163 to 165 °C.

Regarding `CNC(=O)c1csc(COC(=O)N2CCC3(CC2)CC(Oc2cccc(-c4ccc(F)cc4)c2)C3)n1` [Compound 20, 4-methylcarbamoyl-thiazol-2-ylmethyl 2-(4′-fluorobiphenyl-3-yloxy)-7-aza-spiro[3.5]nonane-7-carboxylate], the melting point fell in the range of 130 to 132 °C.

As for `CNC(=O)c1cc(COC(=O)N2CCC3(CC2)CC(Oc2ccc4ccncc4c2)C3)on1` [Compound 21, 3-methylcarbamoyl-isoxazol-5-ylmethyl 2-(isoquinolin-7-yloxy)-7-aza-spiro[3.5]nonane-7-carboxylate], the melting point lay within 79 to 81 °C.

On to `CNC(=O)c1cc(COC(=O)N2CCC3(CC2)CC(Oc2ccc(Cl)c(F)c2)C3)on1` [Compound 22, 3-methylcarbamoyl-isoxazol-5-ylmethyl 2-(4-chloro-3-fluorophenoxy)-7-aza-spiro[3.5]nonane-7-carboxylate], for which the melting point is 107 to 108 °C.

In turn, `CNC(=O)c1cc(COC(=O)N2CC3(CC(Oc4ccc(Cl)c(F)c4)C3)C2)on1` [Compound 23, 3-methylcarbamoyl-isoxazol-5-ylmethyl 6-(4-chloro-3-fluorophenoxy)-2-aza-spiro[3.3]heptane-2-carboxylate] came in with a melting point of 84 to 86 °C.

In turn, `NC(=O)c1cc(COC(=O)N2CC3(CC(Oc4ccc(Cl)c(F)c4)C3)C2)on1` [Compound 24, 3-carbamoyl-isoxazol-5-ylmethyl 6-(4-chloro-3-fluorophenoxy)-2-aza-spiro[3.3]heptane-2-carboxylate] returned a melting point of 135 to 137 °C.
